Laboratory results from patent US20060094003A1, “Acetylcholine-dependent current as a novel ionic target for atrial fibrillation” (priority 2004, published 2006).

Tests used:
[1] = test system: multicellular canine atrial preparations; assay: Action potential recording with standard microelectrodes in multicellular canine atrial preparations (LA and PV); conditions: for APD90 / APD25 / APD50: after tertiapin-Q (200 nM per table title); for APD90: atropine present, 2 Hz
Procedure: Adult mongrel dogs of either sex (weighing about 20-35 kg) were anaesthetized with pentobarbital (30 mg kg^−1 I.V.) and artificially ventilated with room air. Hearts and adjacent lung tissue were relatively quickly excised through a left lateral thoracotomy and immersed in oxygenated Tyrode solution (composition detailed hereinbelow) at room temperature. Removal of the heart and lungs produced circulatory arrest, resulting in relatively effective and relatively humane killing. A left atrial (LA) preparation with the PVs intact was perfused via the left circumflex coronary artery, and subjected to either standard fine-tipped microelectrode recording of action potentials (APs) or cardiomyocyte isolation with collagenase-containing solutions, as previously described (Ehrlich et al. 2003). Six dogs were subjected to atrial tachycardia-induced remodeling induced by 1 week of atrial pacing at about 400 beats min^−1 after ablation of the AV node, as described in Li et al. 1999. Animal care and handling procedures followed the guidelines of the Canadian Council on Animal Care.
To isolate LA and PV cardiomyocytes, the proximal circumflex artery was cannulated and the distal ends of PV myocardial sleeves (approximately 1-1.5 cm from the PV-LA junction) were marked with silk thread prior to subsequent enzyme perfusion with collagenase (100 U ml^−1, Worthington, type II), in order to facilitate localization of PV sleeves after enzymatic digestion. […] With this method, PVs were relatively well-perfused and single cardiomyocytes could be isolated from all veins. Cardiomyocytes obtained from PVs were morphologically similar to LA cardiomyocytes isolated from the LA free wall in the same dogs. All comparisons were based on PV and LA cardiomyocytes isolated from each dog on each experimental day. After isolation, cells were stored at 4° C. and studied on the same day. For standard microelectrode experiments, intact tissue preparations including the LA and adjacent PVs were mounted in a chamber and perfused via the circumflex artery with oxygenated Krebs solution at 36±0.5° C. (see for example Kneller et al. 2002).
Fine-tipped microelectrodes (resistance 15-20 M when filled with 3 M KCl) coupled to a high input-impedance amplifier were used to record APs as described in Kneller et al. 2002.
Tyrode solution contained (mM): NaCl 136, KCl 5.4, MgCl2 1, CaCl2 1, NaH2PO4 0.33, Hepes 5 and dextrose 10 (pH 7.35 with NaOH). The cell-storage solution contained (mM): KCl 20, KH2PO4 10, dextrose 10, mannitol 40, L-glutamic acid 70, β-OH-butyric acid 10, taurine 20, EGTA 10 and 0.1% bovine serum albumin (pH 7.3, KOH). Nifedipine (5 μM) was used to suppress L-type Ca^2+ current (ICa) in all experiments. 4-Aminopyridine (4-AP, 2 mM) was added to suppress transient outward current (Ito). […] Na+ current (INa) contamination was avoided by using a HP of −40 mV for recording of hyperpolarization-induced currents and by substitution of equimolar Tris-HCl for external NaCl for tail-current recordings. When different external K^+ concentrations were applied, the osmolarity was kept constant by proportionate reduction of NaCl content in the solution. The standard internal solution contained (mM): potassium aspartate 110, KCl 20, MgCl2 1, MgATP 5, GTP (lithium salt) 0.1, Hepes 10, sodium phosphocreatine 5 and EGTA 5.0 (pH 7.3 with KOH). In experiments with K+-free internal solution, potassium aspartate was replaced by equimolar caesium aspartate and KCl by CsCl and pH was set to 7.3 with CsOH. For standard-microelectrode experiments, a solution containing (mM): NaCl 120, KCl 4, KH2PO4 1.2, MgSO4 1.2, NaHCO3 25, CaCl2 1.25 and dextrose 5 (95% O2-5% CO2, pH 7.4) was used to perfuse the tissue.
FIGS. 5E and F show representative APs before and after 100 nM tertiapin-Q in LA and PV.

AT-remodeled canine LA = assay: Action potential duration in AT-remodeled canine LA preparations; conditions: for effect on action potential duration (in words): AT-remodeled canine LA
Procedure: Adult dogs were divided into control and AT groups. AT dogs were initially anesthetized with diazepam (0.25 mg/kg IV), ketamine (5.0 mg/kg IV), and halothane (1% to 2%) for transvenous insertion of right ventricular (RV) and right atrial (RA) unipolar pacing leads connected to ventricular and atrial pacemakers implanted in the neck. Pacing began 24 hours after pacemaker implantation. AV block was created by radiofrequency catheter ablation and the RV demand-pacemaker was programmed to 80 bpm. The RA was then tachypaced (400 bpm) for 7-13 days.
On study days, dogs were anesthetized with pentobarbital (30 mg·kg^−1 I.V.) and artificially ventilated. Hearts and adjacent lung tissue were excised via a left thoracotomy and immersed in oxygenated Tyrode solution. For cell isolation, the proximal circumflex coronary artery was cannulated and distal ends of PV myocardial sleeves were marked with silk thread prior to enzyme perfusion with collagenase (100 U mL^−1, Worthington, type II), to facilitate identification after enzymatic digestion. PVs were well-perfused and single cardiomyocytes were isolated from all PVs. After isolation, cells were stored at 4° C. and studied within 12 hours.
For standard-microelectrode experiments and atrial-tachyarrhythmia induction, intact tissue preparations including the LA and adjacent PVs were mounted in a Plexiglas chamber and perfused via the left circumflex coronary artery with oxygenated Kreb's solution at 36±0.5° C. Fine-tipped microelectrodes (resistance 15-20 MΩ when filled with 3-mol/L KCL) coupled to a high-input impedance amplifier were used to record Action Potentials.
Table 1 quantifies this increase in duration by presenting the time required for action potentials in 8 dogs to reach 90%, 50% and 25% repolarization. Results are averages over 24 and 23 action potentials respectively for the pre-TQ data and the post-TQ data.

Kir1 channels = molecular target: T1, Kir1 channels (Homo sapiens, UniProt P48048); conditions: Jin & Lu, 1999; cited from earlier work
T1 sequence (P48048 1-391): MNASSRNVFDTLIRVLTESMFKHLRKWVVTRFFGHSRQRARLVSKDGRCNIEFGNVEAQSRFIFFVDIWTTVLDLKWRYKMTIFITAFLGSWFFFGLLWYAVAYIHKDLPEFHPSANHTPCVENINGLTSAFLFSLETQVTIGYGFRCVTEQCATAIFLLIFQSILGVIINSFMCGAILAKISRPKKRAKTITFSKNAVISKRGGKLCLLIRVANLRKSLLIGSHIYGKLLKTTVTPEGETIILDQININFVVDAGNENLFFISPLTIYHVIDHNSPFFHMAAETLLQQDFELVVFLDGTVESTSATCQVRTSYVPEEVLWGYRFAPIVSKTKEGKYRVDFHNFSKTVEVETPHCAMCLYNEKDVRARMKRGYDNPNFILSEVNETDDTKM

IKs = IKs (Homo sapiens, UniProt P51787); conditions: at concentrations of 8 to 30 nM; cited from earlier work

tertiapin-Q
effect on AP duration in LA and PV (in words) ([1]; 100 nM tertiapin-Q, 200 nM atropine): significantly prolonged
APD90 ([1]; LA, control 202.6 ± 2.6): 242.7 ± 6.2 ms
APD25 ([1]; LA, control 78.1 ± 2.8): 84.7 ± 4.0 ms
APD50 ([1]; LA, control 130.2 ± 4.0): 146.8 ± 3.2 ms
APD90 ([1]; PV, control 190.4 ± 4.3): 234.2 ± 9.9 ms
APD25 ([1]; PV, control 71.3 ± 3.4): 86.1 ± 5.0 ms
APD50 ([1]; PV, control 104.0 ± 3.8): 126.8 ± 6.9 ms
APD25 (AT-remodeled canine LA; 2 Hz, AT-remodeled preparations, post-TQ, pre-TQ 15.9 ± 1.7): 39.0 ± 2.5 ms
APD50 (AT-remodeled canine LA; 2 Hz, AT-remodeled preparations, post-TQ, pre-TQ 44.4 ± 2.3): 87.4 ± 2.7 ms
APD90 (AT-remodeled canine LA; 2 Hz, AT-remodeled preparations, post-TQ, pre-TQ 100.1 ± 2.6): 162.2 ± 4.2 ms
effect on action potential duration (in words) (AT-remodeled canine LA): greatly increases
effect on action potential duration (in words) (AT-remodeled canine LA; listed as TQ): prominently increased
IC50 (Kir1 channels): 2 nM
effect on IKs (in words) (IKs): no effect
